Tests used:
BRAF V600E = biological target: T1, BRAF V600E (Homo sapiens, UniProt P15056, V600E); assay: Cellular assay of target protein degradation, T-Rex 293 cells stably transfected with HA-BRAF_V600E (HA immunofluorescence, high content imaging); type: cell-based; details: T-Rex 293 HA-BRAF V600E; for DC50: half maximal degradation, read-out: BRaf V600E DC50; for Dmax: maximum degradation observed
T1 construct: expressed in transfected cells
Method in brief: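 Degradation of the HA-tagged construct is measured after 24 h treatment at 37 °C across 1 μM to 0.1 nM in 0.1% DMSO, in doxycycline-induced (1 ng/mL) cells. DC50 and Dmax come from HA fluorescence imaging.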

BRAF G466V = biological target: T2, BRAF G466V (Homo sapiens, UniProt P15056, G466V); assay: Cellular assay of target protein degradation, T-Rex 293 cells stably transfected with HA-BRAF G466V (HA immunofluorescence, high content imaging); type: cell-based; details: T-Rex 293 HA-BRAF G466V; for DC50: half maximal degradation, read-out: BRaf G466V DC50; for Dmax: maximum degradation observed
T2 construct: expressed in transfected cells
T2 sequence (P15056 whole entry G466V): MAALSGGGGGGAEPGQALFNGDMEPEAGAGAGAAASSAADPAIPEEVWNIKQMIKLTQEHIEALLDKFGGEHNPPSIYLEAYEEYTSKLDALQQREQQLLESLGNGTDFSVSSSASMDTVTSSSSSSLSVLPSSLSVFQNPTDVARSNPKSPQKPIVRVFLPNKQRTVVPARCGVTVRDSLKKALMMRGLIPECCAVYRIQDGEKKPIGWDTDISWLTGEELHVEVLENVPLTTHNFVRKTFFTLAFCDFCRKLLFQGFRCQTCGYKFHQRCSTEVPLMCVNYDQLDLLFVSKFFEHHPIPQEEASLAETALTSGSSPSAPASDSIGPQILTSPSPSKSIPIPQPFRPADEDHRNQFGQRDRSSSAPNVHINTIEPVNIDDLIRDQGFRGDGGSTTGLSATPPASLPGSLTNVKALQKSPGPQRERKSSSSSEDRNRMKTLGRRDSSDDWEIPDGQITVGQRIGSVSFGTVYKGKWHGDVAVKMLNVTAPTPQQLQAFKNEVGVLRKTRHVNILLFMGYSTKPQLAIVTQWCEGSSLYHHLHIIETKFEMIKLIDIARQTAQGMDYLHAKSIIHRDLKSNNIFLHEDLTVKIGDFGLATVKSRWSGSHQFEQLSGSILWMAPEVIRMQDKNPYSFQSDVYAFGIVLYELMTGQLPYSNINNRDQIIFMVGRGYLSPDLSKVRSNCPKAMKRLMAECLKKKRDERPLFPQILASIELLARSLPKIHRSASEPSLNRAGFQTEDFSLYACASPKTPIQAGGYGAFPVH
Method in brief: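 Dose range spans 30 nM to 3 pM (0.1% DMSO) over 24 hours at 37° C, in cells induced with 0.75 ng/mL doxycycline. Fixed cells are probed with anti-HA antibody overnight at 4° C, then imaged; half-maximal degradation and maximum degradation are derived.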

T1 sequence (P15056 whole entry V600E): as the sequence (P15056 whole entry G466V) above, with V466G, V600E counted along it

DC50 (BRAF V600E) [nM] | Dmax (BRAF V600E) [%] | DC50 (BRAF G466V) [nM] | Dmax (BRAF G466V) [%] | Structure (SMILES)
50 to 500 | < 35 | 10 to 30 | 35 to 70 | O=C1CCC(N2C(=O)c3ccc(C4CCN(CC5CCN(c6ccc(-c7cnc8[nH]cc(C(=O)c9c(F)ccc(NS(=O)(=O)N%10CC[C@@H](F)C%10)c9F)c8c7)cc6)CC5)CC4)cc3C2=O)C(=O)N1 (stereo partly drawn) [Compound 323, (3R)-N-[3-(5-{4-[4-({4-[2-(2,6-dioxopiperidin-3-yl)-1,3-dioxo-2,3-dihydro-1H-isoindol-5-yl]piperidin-1-yl}methyl)piperidin-1-yl]phenyl}-1H-pyrrolo[2,3-b]pyridine-3-carbonyl)-2,4-difluorophenyl]-3-fluoropyrrolidine-1-sulfonamide]
5 to 50 | < 35 | 1 to 10 | 35 to 70 | COc1cc(C2CCN(CC3CCN(c4ccc(-c5cnc6[nH]cc(C(=O)c7c(F)ccc(NS(=O)(=O)N8CC[C@@H](F)C8)c7F)c6c5)cc4)CC3)CC2)ccc1C(=O)NC1CCC(=O)NC1=O (stereo partly drawn) [Compound 184, 4-(1-{[1-(4-{3-[2,6-difluoro-3-({[(3R)-3-fluoropyrrolidin-1-yl]sulfonyl}amino)benzoyl]-1H-pyrrolo[2,3-b]pyridin-5-yl}phenyl)piperidin-4-yl]methyl}piperidin-4-yl)-N-(2,6-dioxopiperidin-3-yl)-2-methoxybenzamide]
5 to 50 | 35 to 70 | 1 to 10 | > 70 | COc1cc(N2CCC(CN3CC4(C3)CN(c3ccc(-c5cnc6[nH]cc(C(=O)c7c(F)ccc(NS(=O)(=O)N8CC[C@@H](F)C8)c7F)c6c5)cc3)C4)CC2)cc2c1C(=O)N([C@@H]1CCC(=O)NC1=O)C2 [Compound 225, (3R)-N-{3-[5-(4-{6-[(1-{2-[(3R)-2,6-dioxopiperidin-3-yl]-7-methoxy-1-oxo-2,3-dihydro-1H-isoindol-5-yl}piperidin-4-yl)methyl]-2,6-diazaspiro[3.3]heptan-2-yl}phenyl)-1H-pyrrolo[2,3-b]pyridine-3-carbonyl]-2,4-difluorophenyl}-3-fluoropyrrolidine-1-sulfonamide]
50 to 500 | > 70 | 1 to 10 | > 70 | O=C1CC[C@H](NC(=O)N2CCCc3c(N4CCC(CN5CCN(c6ccc(-c7cnc8[nH]cc(C(=O)c9c(F)ccc(NS(=O)(=O)N%10CC[C@@H](F)C%10)c9F)c8c7)cc6)CC5)CC4)ccnc32)C(=O)N1 [Compound 371, 5-(4-{[4-(4-{3-[2,6-difluoro-3-({[(3R)-3-fluoropyrrolidin-1-yl]sulfonyl}amino)benzoyl]-1H-pyrrolo[2,3-b]pyridin-5-yl}phenyl)piperazin-1-yl]methyl}piperidin-1-yl)-N-[(3S)-2,6-dioxopiperidin-3-yl]-1,2,3,4-tetrahydro-1,8-naphthyridine-1-carboxamide]
5 to 50 | < 35 | 1 to 10 | > 70 | COc1cc(N2CCC(CN3CC4(C3)CN(c3ccc(-c5cnc6[nH]cc(C(=O)c7c(F)ccc(NS(=O)(=O)N8CC[C@@H](F)C8)c7F)c6c5)cc3)C4)CC2)cc2c1C(=O)N([C@H]1CCC(=O)NC1=O)C2 [Compound 226, (3R)-N-{3-[5-(4-{6-[(1-{2-[(3S)-2,6-dioxopiperidin-3-yl]-7-methoxy-1-oxo-2,3-dihydro-1H-isoindol-5-yl}piperidin-4-yl)methyl]-2,6-diazaspiro[3.3]heptan-2-yl}phenyl)-1H-pyrrolo[2,3-b]pyridine-3-carbonyl]-2,4-difluorophenyl}-3-fluoropyrrolidine-1-sulfonamide]
5 to 50 | 35 to 70 | < 1 | > 70 | O=C1CCC(N2Cc3cc(N4CCC(CN5CCC(Cc6ccc(-c7cnc8[nH]cc(C(=O)c9c(F)ccc(NS(=O)(=O)N%10CC[C@@H](F)C%10)c9F)c8c7)cc6)CC5)CC4)ccc3C2=O)C(=O)N1 (stereo partly drawn) [Compound 154, (3R)-N-{3-[5-(4-{[1-({1-[2-(2,6-dioxopiperidin-3-yl)-1-oxo-2,3-dihydro-1H-isoindol-5-yl]piperidin-4-yl}methyl)piperidin-4-yl]methyl}phenyl)-1H-pyrrolo[2,3-b]pyridine-3-carbonyl]-2,4-difluorophenyl}-3-fluoropyrrolidine-1-sulfonamide]
< 5 | < 35 | 1 to 10 | > 70 | O=C1CCC(N2Cc3cc(C4CCN(CCC5CCN(c6ccc(-c7cnc8[nH]cc(C(=O)c9c(F)ccc(NS(=O)(=O)N%10CC[C@@H](F)C%10)c9F)c8c7)cc6)CC5)CC4)ccc3C2=O)C(=O)N1 (stereo partly drawn) [Compound 127, (3R)-N-[3-(5-{4-[4-(2-{4-[2-(2,6-dioxopiperidin-3-yl)-1-oxo-2,3-dihydro-1H-isoindol-5-yl]piperidin-1-yl}ethyl)piperidin-1-yl]phenyl}-1H-pyrrolo[2,3-b]pyridine-3-carbonyl)-2,4-difluorophenyl]-3-fluoropyrrolidine-1-sulfonamide]
5 to 50 | < 35 | 1 to 10 | > 70 | O=C1CCC(N2Cc3cc(C4CCN(CC5CN(c6ccc(-c7cnc8[nH]cc(C(=O)c9c(F)ccc(NS(=O)(=O)N%10CC[C@@H](F)C%10)c9F)c8c7)cc6)C5)CC4)ccc3C2=O)C(=O)N1 (stereo partly drawn) [Compound 198, (3R)-N-[3-(5-{4-[3-({4-[2-(2,6-dioxopiperidin-3-yl)-1-oxo-2,3-dihydro-1H-isoindol-5-yl]piperidin-1-yl}methyl)azetidin-1-yl]phenyl}-1H-pyrrolo[2,3-b]pyridine-3-carbonyl)-2,4-difluorophenyl]-3-fluoropyrrolidine-1-sulfonamide]
5 to 50 | 35 to 70 | < 1 | 35 to 70 | COc1cc(OCCN2CCN(CCOc3ccc(-c4cnc5[nH]cc(C(=O)c6c(F)ccc(NS(=O)(=O)N7CC[C@@H](F)C7)c6F)c5c4)cc3)CC2)cc2c1C(=O)N([C@H]1CCC(=O)NC1=O)C2 [Compound 44, (3R)-N-(3-{5-[4-(2-{4-[2-({2-[(3S)-2,6-dioxopiperidin-3-yl]-7-methoxy-1-oxo-2,3-dihydro-1H-isoindol-5-yl}oxy)ethyl]piperazin-1-yl}ethoxy)phenyl]-1H-pyrrolo[2,3-b]pyridine-3-carbonyl}-2,4-difluorophenyl)-3-fluoropyrrolidine-1-sulfonamide]
50 to 500 | 35 to 70 | 1 to 10 | > 70 | O=C1CCC(N2Cc3cc(OCCCOC4CCN(c5ccc(-c6cnc7[nH]cc(C(=O)c8c(F)ccc(NS(=O)(=O)N9CC[C@@H](F)C9)c8F)c7c6)cc5)CC4)ccc3C2=O)C(=O)N1 (stereo partly drawn) [Compound 139, (3R)-N-[3-(5-{4-[4-(3-{[2-(2,6-dioxopiperidin-3-yl)-1-oxo-2,3-dihydro-1H-isoindol-5-yl]oxy}propoxy)piperidin-1-yl]phenyl}-1H-pyrrolo[2,3-b]pyridine-3-carbonyl)-2,4-difluorophenyl]-3-fluoropyrrolidine-1-sulfonamide]
5 to 50 | 35 to 70 | 1 to 10 | > 70 | O=C1CC[C@H](NC(=O)c2ccc(N3CC4(CN(CCc5ccc(-c6cnc7[nH]cc(C(=O)c8c(F)ccc(NS(=O)(=O)N9CC[C@@H](F)C9)c8F)c7c6)cc5)C4)C3)cc2F)C(=O)N1 [Compound 373, 4-[6-(2-[4-[3-(2,6-difluoro-3-[[(3R)-3-fluoropyrrolidin-1-ylsulfonyl]amino]benzoyl)-1H-pyrrolo[2,3-b]pyridin-5-yl]phenyl]ethyl)-2,6-diazaspiro[3.3]heptan-2-yl]-N-[(3S)-2,6-dioxopiperidin-3-yl]-2-fluorobenzamide]
5 to 50 | 35 to 70 | < 1 | 35 to 70 | O=C1CCC(N2Cc3cc(CCCCCN4CCC(c5ccc(-c6cnc7[nH]cc(C(=O)c8c(F)ccc(NS(=O)(=O)N9CC[C@@H](F)C9)c8F)c7c6)cc5)CC4)ccc3C2=O)C(=O)N1 (stereo partly drawn) [Compound 65, (3R)-N-(3-{5-[4-(1-{5-[2-(2,6-dioxopiperidin-3-yl)-1-oxo-2,3-dihydro-1H-isoindol-5-yl]pentyl}piperidin-4-yl)phenyl]-1H-pyrrolo[2,3-b]pyridine-3-carbonyl}-2,4-difluorophenyl)-3-fluoropyrrolidine-1-sulfonamide]
50 to 500 | 35 to 70 | > 30 | > 70 | O=C1CC[C@H](N2Cc3cc(N4CCC(CN5CCN(C6(c7ccc(-c8cnc9[nH]cc(C(=O)c%10c(F)ccc(NS(=O)(=O)N%11CC[C@@H](F)C%11)c%10F)c9c8)cn7)CC6)CC5)CC4)ccc3C2=O)C(=O)N1 [Compound 288, (3R)-N-(3-{5-[6-(1-{4-[(1-{2-[(3S)-2,6-dioxopiperidin-3-yl]-1-oxo-2,3-dihydro-1H-isoindol-5-yl}piperidin-4-yl)methyl]piperazin-1-yl}cyclopropyl)pyridin-3-yl]-1H-pyrrolo[2,3-b]pyridine-3-carbonyl}-2,4-difluorophenyl)-3-fluoropyrrolidine-1-sulfonamide]
5 to 50 | 35 to 70 | < 1 | > 70 | O=C1CCC(N2Cc3cc(N4CCC(CN5CCN(c6ccc(-c7cnc8[nH]cc(C(=O)c9c(F)ccc(NS(=O)(=O)N%10CC[C@@H](F)C%10)c9F)c8c7)cn6)CC5)CC4)ccc3C2=O)C(=O)N1 (stereo partly drawn) [Compound 25, (3R)-N-[3-(5-{6-[4-({1-[2-(2,6-dioxopiperidin-3-yl)-1-oxo-2,3-dihydro-1H-isoindol-5-yl]piperidin-4-yl}methyl)piperazin-1-yl]pyridin-3-yl}-1H-pyrrolo[2,3-b]pyridine-3-carbonyl)-2,4-difluorophenyl]-3-fluoropyrrolidine-1-sulfonamide]
